From US7091182B2, “Method for assisting in differential diagnosis and treatment of autistic syndromes” (Repligen Corporation, priority 1997, dated 2006)
Entries after “also recorded” stand apart in the source; their conditions may differ.

What was measured:
[1] = tested on: children with autistic behavior; experiment: Evoked potential studies and SPECT imaging of the brain before and after secretin (Case 1); assay type: in vivo, human
Text: Case 1. […], was the product of a full-term uncomplicated pregnancy. Development of language and social behavior proceeded normally until about 15 months of age. At that time they lost their expressive vocabulary and their social behavior deteriorated. They were clinically diagnosed with autism by a pediatric neurologist. A multidisciplinary evaluation changed the diagnosis to PDD not otherwise specified. […] Because of their chronic diarrhea and elevated antigliadin IgG antibody titer, they underwent an upper gastrointestinal endoscopy. […] Three weeks after the procedure their parent reported significant changes in their gastrointestinal symptoms and behavior. […] More dramatic changes occurred in their autistic behavior (Table 4). […] Eight months after the procedure they have still retained their cognitive gains.

[2] = tested on: children with autistic behavior; experiment: Behavioral evaluation after secretin administration; assay type: in vivo, human
Text: Prior to the secretion administration, each child underwent developmental/psychological evaluation. […] In addition, most underwent a structured evaluation including assessment of intelligence, language ability, adaptive function [Vineland Adaptive Behavior Scales]^53 and behavioral rating scales [Child Behavior Checklist]^54. A more specific measure directly related to autism, the Childhood Autism Rating Scale [CARS]^55, was also used.
The most recent 8 cases had developmental/psychological evaluations at the University of Maryland or at the Kennedy Krieger Institute prior to the secretin administration.
The number and type of evaluation techniques that were employed increased across subjects as did the degree of sophistication of the professional staff involved in the design and conduct of the evaluation approaches. Specifically, data on the first seven subjects consisted of brief clinical observations, parental report, analysis of videotapes, and reports of evaluations by professionals who had conducted routine assessments not specifically dictated by our research protocol. Whereas, data on the second eight subjects studied consisted of the same methods described above, as well as with the addition of direct observation of behavior employing a standard functional analysis of structured videotape samples (analyzed in random order by blind raters); standard assessments including Communication and Symbolic Behavior Scales (CSBS), Pre-School Language Scales—3 (PSLS), Bayley Scales of Infant Development: Second Edition, Vineland Adaptive Behavior Scales, Childhood Autism Rating Scale (CARS), and Behavior Observation System (BOS). Further, the evaluation team for the least eight subjects involved professionals from the areas of neuropsychology, behavioral psychology and developmental pediatrics from both the University of Maryland School of Medicine and the Kennedy Krieger Institute/Johns Hopkins University School of Medicine.

[3] = tested on: children with autistic behavior; experiment: Stool consistency / gastrointestinal symptoms after endoscopy and secretin injection; assay type: in vivo, human
Text: The specific procedures were as follows.

[4] = tested on: patients with intrahepatic cholestasis; details: double-blind placebo-controlled multicentric trial; cited from earlier work
[5] = tested on: children with autistic behavior; experiment: Pancreatic stimulation with secretin during upper gastrointestinal endoscopy, collection of pancreatico-biliary fluid; assay type: in vivo, human
Description: After fasting from midnight, upper gastrointestinal endoscopies were carried out the next morning under general anesthesia. All gastric juice was aspirated before passing the endoscope into the duodenum. The pancreatico-biliary juice was collected after positioning the endoscope distal to the ampulla of Vater. An ERCP catheter was placed into the channel of endoscope and the fluid was collected by moving the tip into the outcoming fluid and suctioning it into a syringe. The pancreas was then stimulated with secretin 2 IU/kg BW (Ferring Laboratories, Inc. Suffern, NY, USA) given intravenously within a minute. Three additional specimens were collected after the secretin injection within a 10-minute period. Blood samples were collected prior to and 10 minutes after secretin stimulation. In a subgroup of children, the effect of duodenal acidification was determined by measurement of blood secretin levels before and 4–5 minutes after washing the second part of the duodenum with 0.05M hydrochloric acid for 5 minutes. At the end of the procedure, biopsies were obtained of the small intestine, esophagus and stomach.
The volume of secreted fluid was calculated as ml/min and the aspirated juice analyzed for pH, protein (mg/ml; Bio-Rad protein assay), and for enzymes (amylase, trypsin, lipase, chymotrypsin, and carboxypeptidase A and B). These enzyme assays were modified by us and run regularly in our certified Clinical Laboratory. An aliquot of collected fluid was sent for bacterial and fungal culture. Intestinal biopsy specimens were homogenized in ice-cold distilled water and the activities of lactase, maltase, sucrase, palatinase and glucoamylase were measured using the Dahlquist intestinal disaccharidases assay [Dahlquist, Anal. Biochem. 22:99–107 (1968); Azad M, Pediatr Res, 1990;28: 166–170 (1990)]. The normal values were established based on measurements of histological normal intestinal biopsy tissues (n=104) at the University of Maryland. In our practice, digestive enzyme activities below the established 3d percentile values are considered abnormal.

For secretin, the “repeat evoked potential studies” value ([1]; Case 1, eight months after secretin administration) was “only a minimal delay in responses”, the “SPECT, cerebral perfusion / blood flow” value ([1]; Case 1, follow-up versus pre-secretin study) was “marked improvement in the cerebral blood flow; also recorded: less marked decrease in perfusion of right posterior parietal and right temporal lobes” and the “latest behavioral evaluation (diagnosis)” value ([2]; Case 1) was “changed from a low functioning autistic child to a social, non-autistic, speech delayed child; also recorded: changed from a low functioning autistic child to a social, non-autistic, speech-delayed child”. For the same substance, the “changes in autistic behavior” value ([2]; Case 1, after first secretin dose) was “dramatic improvement in eye contact, alertness, expressive language and fine motor skills; also recorded: improvements in eye contact, alertness, expressive language, and fine motor skills”, the “language and cognitive functions” value ([2]; Case 1, second single secretin infusion eight months later) was “further improvement in their language and cognitive functions” and the cognitive skills ([2]; Case 2, five weeks following a single dosage) was “progressive improvement in cognitive skills; also recorded: improved over a five weeks period”. For the same substance, the “social behavior and language” value ([2]; Case 2, second dose 3 months later) was “further improvement in their social behavior and language”, the “language and communication skills” value ([2]; Case 3, second infusion 3 months later) was “accelerated their improvement” and the “language, social, and communication skills” value ([2]; Case 3, three weeks and two months after the procedure) was “significant improvements in language, social, and communication skills; also recorded: improved significantly”. For the same substance, the “Progress after Secretin administration: eye contact” value ([2]; Case #1, within two months, % of the time, before: Minimal eye contact) was “Eye contact 75% of the time”, the “Progress after Secretin administration: bowel movements” value ([2]; Case #1, within two months, before: Abnormal bowel movements) was “Normal bowel movements” and the “Progress after Secretin administration: sleeping” value ([2]; Case #1, within two months, before: Consistent sleeping problems) was “Has slept through almost every night entirely”. The “Progress after Secretin administration: potty training” value ([2]; Case #1, within two months, before: Diapers only) was “Completely potty trained”, the “Progress after Secretin administration: imitating commands” value ([2]; Case #1, within two months, before: Did not imitate commands) was “Will imitate almost any multi-step command” and the “Progress after Secretin administration: water consumption” value ([2]; Case #1, within two months, before: Excessive water consumption) was “Excessive water consumption - no change”. For the same substance, the “Progress after Secretin administration: spinning episodes” value ([2]; Case #1, within two months, before: Infrequent (1–2 times/week)) was “No spinning episodes”, the “Progress after Secretin administration: diet preferences” value ([2]; Case #1, within two months, before: Limited diet preferences) was “No change” and the “Progress after Secretin administration: connections between language and objects” value ([2]; Case #1, within two months, before: No apparent connections) was “Many connections made between new language learned and objects. Recites”. For the same substance, the “Progress after Secretin administration: flash cards” value ([2]; Case #1, within two months, before: No flash cards) was 40–50 Flash cards, the “Progress after Secretin administration: focus on requested tasks” value ([2]; Case #1, within two months, before: No focus on requested tasks) was “Will sit and watch carefully. Will perform most tasks after watching once or” and the “Progress after Secretin administration: interest in drawing” value ([2]; Case #1, within two months, before: No interest in drawing) was “Wants to draw constantly. Will draw complete face and name the parts as he”. For the same substance, the “Progress after Secretin administration: response to request for gestures” value ([2]; Case #1, within two months, before: No response) was “Responds to all kinds of requests and spontaneously says these things themself”, the “Progress after Secretin administration: sentences” value ([2]; Case #1, within two months, before: No sentences) was “Short sentences, such as “I love you”, “I want juice”, “Good night mammy”” and the “Progress after Secretin administration: words” value ([2]; Case #1, within two months, before: Two words) was 100's of words - will repeat some aproximation at any word requested. The “Progress after Secretin administration: videos” value ([2]; Case #1, within two months, before: Watch videos) was “Now gets “involved” interactively with their videos. They will imitate the hand”, the “autistic symptoms and cognitive, language, and social skills, share of responders” value ([2]; all children who received secretin) was “more than half of the children” and the “Changes after Secretin: Activity level” value ([2]; case #2, time 1 week) was “Very energetic but has very good focus during”. For the same substance, the “Changes after Secretin: Appetite” value ([2]; case #2, time 1 week) was “Eating more foods: 2–3 large meals per day:”, the “Changes after Secretin: Movements” value ([2]; case #2, time 1 week) was “A decrease in most abnormal movements but” and the “Changes after Secretin: Social interaction” value ([2]; case #2, time 1 week) was “Hugging therapists; better eye contact,”. The “Changes after Secretin: Correct responses to drills” value ([2]; case #2, time 1 week, before: 50% correct responses) was 75–80% correct responses, the “Changes after Secretin: Bowel movements” value ([2]; case #2, time 2–3 days) was “At first constipated for 2–3 days. then normal” and the “Changes after Secretin: Receptive language, commands understood” value ([2]; case #2, time 3 weeks, before: 20–30% of commands) was “understands where they are going: understands 75%”. The “Changes after Secretin: Fine motor” value ([2]; case #2, time 4 weeks) was “Putting together Legos: turns key in door; turns”, the “Changes after Secretin: Gross motor” value ([2]; case #2, time 4 weeks) was “Starts to hang on monkey bars: goes down fire” and the “Changes after Secretin: Sleep” value ([2]; case #2, time 1 day, before: 7–8 hours) was 10–12 hours per night uninterrupted every night. The “Changes after Secretin: Alertness, concentration” value ([2]; case #2, time 2 days) was “Extremely alert: looking therapist directly in”, the “Changes: Activity level” value ([2]; case #3) was “Less hyperactive. More settled. More attentive and” and the “Changes: Alertness, concentration” value ([2]; case #3) was “Chewing clothing, hands, and licking have stopped”. The “Changes: Appetite” value ([2]; case #3) was “Normal diet seems to satisfy them more. No longer”, the “Changes: Cognitive” value ([2]; case #3) was “Actions are more purposeful. Playing sequencing,” and the “Changes: Eye contact” value ([2]; case #3) was “More eye contact. Seeks out attention and once”. For the same substance, the “Changes: Fine motor skills” value ([2]; case #3) was “Now uses fork and spoon much more readily and”, the “Changes: Sleep” value ([2]; case #3) was “Now goes to bed willing and happily. Takes great” and the “Changes: Social interaction” value ([2]; case #3) was “Now has a friend at school. They participate actively in”. For the same substance, the “Changes: Correct responses to drills/commands” value ([2]; case #3, before: 50% correct responses) was “Rarely guessing. Very tuned in. Perhaps 80% correct”, the “Changes: Bowel movements” value ([2]; case #3, before: Loose stools or diarrhea) was “Normal bowel movement since week three” and the “Changes: Receptive language” value ([2]; case #3, before: understood 50% of commands) was “Understands almost everything. Understands two-step”. For the same substance, the “increase in the scores on the Vineland Scale of Adaptive Behavior” value ([2]; case three, immediately after secretin administration) was 22%, the “delayed reaction reported by the parents” value ([2]; case three, one-to-two months later) was “improved eye contact, increased focus on tasks, as well as improvements in language” and the language skills ([2]; case two, after the secretin injection) was “significant improvement in language skills”. For the same substance, the “Vineland Scale of Adaptive Behaviors” value ([2]; child SG) was “increase in all five areas tested”, the “increase in the CSBS” value ([2]; child SG) was 25% and the “increases in language skills” value ([2]; child SG) was “six-to-nine month”. For the same substance, the “increase in language skills measured by the PSLS (equivalent in development)” value ([2]; child WB) was “five months to one year”, the “increase on the Bayley Scale of Development” value ([2]; child WB) was 11 point and the “increase on the CSBS scale” value ([2]; child WB, within four months) was 37%. The autistic symptoms ([2]; each of the three cases) was “produced relief from autistic symptoms”, the “cognitive, social, language, and age appropriate skills” value ([2]; first seven subjects, parental report and non-protocol evaluations) was “dramatic changes in cognitive, social, language, and age appropriate skills were reported for four of the first seven subjects” and the “decrease of activity level measured by actometers” value ([2]; subject one) was 50%. The “increase on the BOS” value ([2]; subject one) was 22%, the chronic diarrhea ([3]; Case 1, within three weeks after the procedure) was “their chronic diarrhea resolved; also recorded: His chronic diarrhea resolved” and the chronic diarrhea ([3]; Case 3) was “His chronic diarrhea resolved”. The “duration of stool improvement” value ([3]; seven children with chronic loose stools) was “In five children this improvement was permanent”, the consistency of stools ([3]; seven children with chronic loose stools, after endoscopy and secretin injection) was “all of them had an improvement in the consistency of stools” and the “reduction of serum bilirubin levels, secretin versus placebo” value [4] was “no statistically significant differences”. The pancreatic secretory response ([5]; Case 1, after 2 IU/kg BW of secretin) was 10 mL/min, the “secretory response after secretin administration” value ([5]; Case 2, 2 IU/kg body weight of secretin) was 7.5 mL/min and the “pancreato-biliary response to secretin, output” value ([5]; Case 3) was 8 mL/min. The Pancreatic secretion ([5]; Group I (chronic loose stools/diarrhea)) was “Increased (>5 ml/min)”, the Pancreatic secretion ([5]; Group II (no diarrhea)) was “Normal (<4 ml/min)” and the “pancreato-biliary secretory response compared to non-autistic patients” value ([5]; all children, after secretin injection) was “extensive pancreato-biliary secretory response”. The “highest rate of secretion” value ([5]; in one child) was 10 mL/min and the pancreatico-biliary secretion rates ([5]; six out of 7 autistic patients who had chronic loose stools) was “above 5 ml/min”.
